# Reference: paper PMC10746280, “Bacterial efflux pump modulators prevent bacterial growth in macrophages and under broth conditions that mimic the host environment” (mBio, 2023)
# Tested on: S. Typhimurium
# Assay: Bacterial growth (OD600, CFU/mL) in LPM medium
# Format: cell-based
# Source text: LPM 5.5 is chemically defined, contains low phosphate and low magnesium, and is buffered to pH 5.5 ([34], [39][–][41]). […] It was further noted that mutant strains lacking acrAB or tolC grow poorly in LPM 5.5 compared to the corresponding wild type (Fig. 5C through F).
# Fig 5 In LPM pH 5.5, acrAB and tolC are required for growth, and EPM analogs inhibit growth. (A and B) Optical density at 600 nm (OD600) and CFU per milliliter of S. Typhimurium in LPM 5.5 (at pH 5.5) or LPM 7 (at pH 7.0) in the presence of CU032. (C through F) OD600 in LPM 5.5 of (C and E) S. Typhimurium ΔacrAB mutant and wild-type strains, and (D and F) E. coli ΔtolC mutant and wild-type strains with (C, D) CU032 or (E and F) EPM35. Mean and SEM of three biological replicates are shown for A–F. The wild-type and mutant strain controls are the same for C and E and for D and F.
# Bacteria were grown in LB at 37°C ([76], [77]), unless otherwise stated. Cation-adjusted MHB was purchased from Sigma-Aldrich (90922). LPM 5.5 medium was made according to the following recipe: 5 mM KCl, 7.5 mM (NH4)2SO4, 0.5 mM K2SO4, 10 mM glucose, 49 µM MgCl2, 337 µM PO4-, 0.05% casamino acids (CAS)-amino acids, 80 mM MES, adjusted to pH to 5.5 with 5 M NaOH, and sterile filtered. Where stated, bacteria were grown with antibiotics: 30 µg/mL streptomycin.
smiles,measurement,setting,value
NC1CCN(CC(O)COc2ccc(Cl)c(Cl)c2)C1 (stereo not drawn) [CU032],nature of inhibitory activity (CFU per milliliter),LPM 5.5,"bacteriostatic, not bactericidal"
same,growth inhibition in LPM 5.5,pH 5.5,prevented bacterial growth
same,growth inhibitory activity in LPM at pH 7.0,pH 7.0,abolished
